We go through 7 compounds from patent US8466143B2, “Azepine derivatives as pharmaceutical agents” (Exelixis, Inc., priority 2003, dated 2013).

Molecules are shown by their SMILES. Where only a bound is given, the exact number is not on record here.

In one assay the target is T1, full length human farnesoid X receptor (Homo sapiens, UniProt Q96RI1).
T1 construct: CMX-farnesoid X receptor (full length human farnesoid X receptor); expressed in transfected cells; host or cells: CV-1 African Green Monkey Kidney cells
T1 sequence (Q96RI1 1-472 isoform Q96RI1-2): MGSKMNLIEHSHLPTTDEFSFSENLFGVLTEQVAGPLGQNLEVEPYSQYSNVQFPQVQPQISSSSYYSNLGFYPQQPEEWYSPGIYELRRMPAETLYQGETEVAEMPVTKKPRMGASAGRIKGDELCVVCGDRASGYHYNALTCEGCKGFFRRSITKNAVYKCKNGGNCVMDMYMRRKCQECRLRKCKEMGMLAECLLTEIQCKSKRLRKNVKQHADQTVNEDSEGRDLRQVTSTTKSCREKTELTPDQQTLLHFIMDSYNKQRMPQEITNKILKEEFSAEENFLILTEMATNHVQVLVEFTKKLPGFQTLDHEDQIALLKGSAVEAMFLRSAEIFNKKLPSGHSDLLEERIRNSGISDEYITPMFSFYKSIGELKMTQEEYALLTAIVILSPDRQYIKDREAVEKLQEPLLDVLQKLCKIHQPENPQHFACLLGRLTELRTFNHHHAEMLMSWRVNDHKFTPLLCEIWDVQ
T1 sequence (P19793 1-462 partner): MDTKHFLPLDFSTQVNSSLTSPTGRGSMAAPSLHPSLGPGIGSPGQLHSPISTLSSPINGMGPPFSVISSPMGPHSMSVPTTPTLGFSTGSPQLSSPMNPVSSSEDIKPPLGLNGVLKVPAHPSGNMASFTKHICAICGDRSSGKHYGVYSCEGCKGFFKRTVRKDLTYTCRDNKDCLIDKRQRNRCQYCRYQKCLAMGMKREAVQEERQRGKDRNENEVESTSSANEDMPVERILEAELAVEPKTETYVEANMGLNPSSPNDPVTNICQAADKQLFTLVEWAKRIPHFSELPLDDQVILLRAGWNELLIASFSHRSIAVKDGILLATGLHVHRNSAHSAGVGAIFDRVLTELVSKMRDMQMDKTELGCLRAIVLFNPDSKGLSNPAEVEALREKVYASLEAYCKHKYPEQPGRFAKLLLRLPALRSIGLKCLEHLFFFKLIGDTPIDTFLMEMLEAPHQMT
Briefly: farnesoid X receptor/ECREx7 co-transfection assay. Type of assay: cell-based. The note with it: CV-1 cells, agonist mode. The procedure:
The basic co-transfection protocol for measuring the farnesoid X receptor activity is as follows. CV-1 African Green Monkey Kidney cells were plated 24 hours before transfection to achieve approximately 70-80 percent confluency. Cells were transfected with the following expression vectors, CMX-farnesoid X receptor (full length human farnesoid X receptor), CMX-RXRα (full length human RXR), Luc12 ((ECREx7-Tk-Luciferase) luciferase reporter gene construct. (See WO 00/76523, Venkateswaran et al., (2000) J. Biol. Chem. 275 14700-14707). A CMX-β-Galactosidase expression vector was used as a transfection control. The transfection reagent used was DOTAP (Boehringer Mannheim). Cells were incubated with the DOTAP/DNA mixture for 5 hours after which the cells were harvested and plated onto either 96 well or 384 well plates containing the appropriate concentration of test compound. The assay was allowed to continue for an additional 18-20 hours, after which the cells were lysed, with lysis buffer (1% triton X 100, 10% glycerol, 5 mM Dithiothreitol, 1 mM EGTA, 25 mM Tricine, pH 7.8) and the luciferase activity measured in the presence of Luciferase assay buffer (0.73 mM ATP, 22.3 mM Tricine, 0.11 mM EGTA, 0.55 mM Luciferin, 0.15 mM Coenzyme A, 0.5 mM HEPES, 10 mM Magnesium sulphate) on a standard luminomter plate reader (PE Biosystems, NorthStar Reader), using recommended operating instructions and conditions.
Both the farnesoid X receptor/ECREx7 co-transfection assay (Example 10) and the TR-FRET assay (Example 9) can be used to establish the EC50/IC50 values for potency and percent activity or inhibition for efficacy. Efficacy defines the activity of a compound relative to a high control (chenodeoxycholic acid, CDCA) or a low control (DMSO/vehicle). The dose response curves are generated from an 8 point curve with concentrations differing by ½ LOG units. Each point represents the average of 4 wells of data from a 384 well plate. The curve for the data is generated by using the equation: Y=Bottom+(Top-Bottom)/(1+10^((Log EC50−X)*HillSlope))
The EC50/IC50 is therefore defined as the concentration at which an agonist or antagonist elicits a response that is half way between the Top (maximum) and Bottom (baseline) values. The EC50/IC50 values represented are the averages of at least 3 independent experiments. The determination of the relative efficacy or % control for an agonist is by comparison to the maximum response achieved by chenodeoxycholic acid that is measured individually in each dose response experiment.
For the antagonist assay, CDCA is added to each well of a 384 well plate to elicit a response. The % inhibition for each antagonist is therefore a measurement of the inhibition of the activity of CDCA. In this example, 100% inhibition would indicate that the activity of CDCA has been reduced to baseline levels, defined as the activity of the assay in the presence of DMSO only.
What is called EC50 is the concentration needed to bring the measured effect to its halfway point. `CCOC(=O)c1cc2c([nH]1)C(C(=O)OC(C)C)=CN(C(=O)c1ccc(F)c(F)c1)CC2(C)C` [6-(3,4-Difluoro-benzoyl)-4,4-dimethyl-1,4,5,6-tetrahydro-pyrrolo[2,3-d]azepine-2,8-dicarboxylic acid 2-ethyl ester 8-isopropyl ester]: the EC50 is ≤ 100 nM.

Take `CCOC(=O)C1=CN(C(=O)c2ccc(F)cc2)CC(C)(C)c2c1[nH]c1c2CCCC1` [3-(4-Fluoro-benzoyl)-1,1-dimethyl-1,2,3,6,7,8,9,10-octahydro-azepino[4,5-b]indole-5-carboxylic acid ethyl ester]: the EC50 is ≤ 100 nM.

In the case of `CCOC(=O)C1=CN(C(=O)c2ccc(F)c(F)c2)CC(C)(C)c2ccsc21` [6-(3,4-Difluoro-benzoyl)-4,4-dimethyl-5,6-dihydro-4H-thieno[2,3-d]azepine-8-carboxylic acid ethyl ester], the EC50 was ≤ 100 nM.

Consider `CCOC(=O)C1CN(C(=O)c2ccc(F)cc2)CC(C)(C)c2c1[nH]c1c2CCCC1` (centres unmarked) [3-(4-Fluoro-benzoyl)-1,1-dimethyl-1,2,3,4,5,6,7,8,9,10-decahydro-azepino[4,5-b]indole-5-carboxylic acid ethyl ester], for which the EC50 was ≤ 100 nM.

In the case of `CCOC(=O)C1=CN(C(=O)c2ccc(F)c(F)c2)CC(C)(C)c2cc(C(=O)OCC)[nH]c21` [6-(3,4-Difluoro-benzoyl)-4,4-dimethyl-1,4,5,6-tetrahydro-pyrrolo[2,3-d]azepine-2,8-dicarboxylic acid diethyl ester], the EC50 is ≤ 100 nM.

Take `CCOC(=O)C1=CN(C(=O)c2ccc(F)cc2)CCc2c1[nH]c1c2CCCC1` [3-(4-Fluoro-benzoyl)-1,2,3,6,7,8,9,10-octahydro-azepino[4,5-b]indole-5-carboxylic acid ethyl ester]: the EC50 is ≤ 1000 nM.

Turning to `CCOC(=O)c1cc2c(n1C)C(C(=O)OC(C)C)=CN(C(=O)c1ccc(F)c(F)c1)CC2(C)C` [6-(3,4-Difluoro-benzoyl)-1,4,4-trimethyl-1,4,5,6-tetrahydro-pyrrolo[2,3-d]azepine-2,8-dicarboxylic acid 2-ethyl ester 8-isopropyl ester], the EC50 was ≤ 100 nM.

The same assay, now with this note: relative to maximum response of chenodeoxycholic acid (CDCA).
For `CCOC(=O)C1=CN(C(=O)c2ccc(F)cc2)CCc2c1[nH]c1c2CCCC1` [3-(4-Fluoro-benzoyl)-1,2,3,6,7,8,9,10-octahydro-azepino[4,5-b]indole-5-carboxylic acid ethyl ester], the efficacy result is listed as “greater than 100%”.
